# In patent publication US10000452B1, “Quinolone-based compounds, formulations, and uses thereof” (University of South Florida, priority 2016, dated 2018):
# Tests used:
# [1] = system: malarial strain W2 (pyrimethamine and chloroquine-resistant); test: in vitro antimalarial activity against multidrug resistant strain W2; type: cell-based, P. falciparum; details: Plasmodium falciparum, read-out: EC50 W2 (nM)
# [2] = system: malarial strain TM90-C2B (mefloquine, chloroquine, atovaquone, and pyrimethamine-resistant); test: microbe, parasite or virus in culture; type: cell-based, P. falciparum; details: Plasmodium falciparum, TM90, read-out: EC50 TM90-C2B (nM)
# Source text: Ideally, the RI of a compound should lie between 0.3 and 3.0 in order to avoid rapidly inducing resistance in the parasite. […]
# [3] = aqueous solubility (LC/MS- or HPLC-based assay); type: physicochemical; details: Example 2
# Outline: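 Aqueous solubility and log D (pH 7.4) determined by LC/MS-based assays; solubility examined at more than one pH.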
# Pb-infected mice = test: in vivo efficacy scouting assay against blood stages; set-up: species or system P. berghei; mice; details: Example 2: two mice, single 50 mg/kg oral dose in PEG400 on day 1 PE
# Experimental: The screening involved a single oral 50 mg/kg dose 1 day post infection (PI) and an assessment of parasitemia on days 3 PI and 6 PI (Table 6).
# The screening was performed by treating two infected mice with a single 50 mg/kg oral dose of test compound suspended in PEG400 on day 1 postexposure (PE) followed by assessing parasitemia on days 3 and 6 PE.
# P. berghei-GFP parasites = test: modified Thompson test; type: in vivo, P. berghei; mice
# Experimental: Mice were infected with 1×10^6 P. berghei-GFP parasites and compounds were dosed orally on days 3, 4 and 5 PI with a dose of 10 mg/kg of compound suspended or dissolved in HEC/Tween or PEG 400. Parasitemia was observed by flow cytometry on days 3, 6, 9, 13, 21, and 30 PI. Compounds with animal survival up to day 30 PI and parasitemia levels of less than 1% on day 30 PI were considered to be cures. Lastly, animals with more than 40% parasitemia levels were euthanized.
# On days 3, 6, 9, 13, 21, and 30 PE, parasitemia was monitored by Giemsa-stained blood smears. Both compounds were evaluated by the reduction of parasitemia on day 6 PE and the survival up to day 30 PE.
# [4] = target: P. berghei sporozoites expressing luciferase; details: previous work; read-out: liver stage activity; cited from earlier work
# [5] = system: malarial strain TM90-C2B (mefloquine, chloroquine, atovaquone, and pyrimethamine-resistant); details: previous work; cited from earlier work
structure (smiles),measurement,setting,value
"CCCCc1cc2c(=O)c(Br)c(C)[nH]c2cc1OCCOc1ccccc1 [Compound 16c, 3-Bromo-6-butyl-2-methyl-7-(2-phenoxyethoxy)quinolin-4(1H)-one]",EC50,[1],2.6 nM
same,EC50,[2],12.2 nM
same,fold more soluble in comparison to 6b,[3],approximately 10
same,% inhibition on day 6 PE,Pb-infected mice,49.5%
same,day mice were sacrificed,"P. berghei-GFP parasites; Example 2: 10 mg/kg oral days 3, 4, 5, controls sacrificed day 13",13
same,% inhibition on day 6 PE,"P. berghei-GFP parasites; Example 2: 10 mg/kg oral days 3, 4, 5 in HEC/Tween, Giemsa-stained smears",61%
same,EC50,[4],2.12 nM
same,resistance index (RI),[5],4.69
